{"source": "paper PMC5041076", "about": "“Ilex kaushue and Its Bioactive Component 3,5-Dicaffeoylquinic Acid Protected Mice from Lipopolysaccharide-Induced Acute Lung Injury” (Scientific Reports, 2016)", "key": {"[1]": {"test_system": "LTB4-induced human neutrophils", "assay": "Elastase release in LTB4-induced neutrophils", "assay_type": "cell-based", "conditions": "Neutrophil, inducer LTB4, Table S2", "method": "(§1) All assays were performed as described previously[58],[59]. Neutrophils isolated from the blood of healthy volunteers (20–30 years old) were resuspended in a Ca^2+-free HBSS buffer (pH 7.4) at 4 °C before use. O2^.− generation was measured based on reduction of ferricytochrome c. In brief, after supplementation with 0.5 mg/ml ferricytochrome c and 1 mM Ca^2+, neutrophils were equilibrated at 37 °C for 2 min and incubated with the specified drugs for 5 min. Neutrophils were activated using 30 nM fMLF or 100 nM LTB4 for 10 min after addition of cytochalasin B (CB, 1 μg/mL) for 3 min. Changes in absorbance concomitant with reduction of ferricytochrome c at 550 nm were continuously monitored. For elastase release, neutrophils (6 × 10^5 cells/mL) were mixed with methoxysuccinyl-Ala-Ala-Pro-Val-pNA (100 μM) substrate at 37 °C for 5 min. […] Inhibition of superoxide generation and elastase release were calculated in keeping with previous reports."}, "Human proteinase 3": {"molecular_target": "T1, Human proteinase 3 (Homo sapiens, UniProt P24158)", "T1 construct": "purchased Merk 539483", "T1 sequence (P24158 28-256)": "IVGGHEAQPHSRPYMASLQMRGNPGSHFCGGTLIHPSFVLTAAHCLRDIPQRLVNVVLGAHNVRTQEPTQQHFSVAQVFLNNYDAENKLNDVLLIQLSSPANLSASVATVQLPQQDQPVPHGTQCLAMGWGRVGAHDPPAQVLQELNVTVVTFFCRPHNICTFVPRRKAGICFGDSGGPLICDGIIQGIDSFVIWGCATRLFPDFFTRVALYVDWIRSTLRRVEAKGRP", "assay": "Serine protease enzyme inhibition assay, proteinase 3", "assay_type": "biochemical", "conditions": "mean ± S.E.M. (n ≥ 3)"}, "Src family kinases": {"test_system": "Src family kinases", "assay": "Immunoblotting of Src family kinase phosphorylation in fMLF-activated neutrophils", "assay_type": "cell-based, human", "conditions": "10 μM, 5 min before fMLF (0.1 μM) 0.5 min, Western blot; listed as 3,5-DCQA", "method": "(§2) Neutrophils were pretreated with DMSO or 3,5-DCQA (10 μM) for 5 min before fMLF stimulation for 0.5 min at 37 °C. Cells were lysed with lysis buffer consisting of 50 mM HEPES (pH 7.4), 100 mM NaCl, 1 mM Ca^2+, 2 mM Na3VO4, 1 mM phenylmethanesulfonyl fluoride, 5% b-mercaptoethanol, 10 mM p-nitrophenyl phosphate, 1% protease inhibitor cocktail (Sigma-Aldrich) and 1% Triton X-100. Cell lysates were collected by centrifugation at 14,000 rpm for 20 min at 4 °C. After gel electrophoresis and transferring to membranes, samples were blocked with 5% nonfat milk in a mixture of Tris-buffer saline and Tween 20. Target protein was identified by the corresponding primary antibody overnight at 4 °C. Membranes were incubated with horseradish peroxidase-conjugated, secondary anti-rabbit or anti-mouse antibodies at room temperature for 1 h. After washing, enhanced chemiluminescence solution was used and protein expression was analyzed by the BioSpectrum Imaging System (UVP, Upland, CA). The quantitative ratio of target protein was normalized to total protein or GAPDH."}, "Vav": {"test_system": "Vav", "assay": "Immunoblotting of Vav phosphorylation in fMLF-activated neutrophils", "assay_type": "cell-based, human", "conditions": "10 μM, 5 min before fMLF (0.1 μM) 0.5 min, Western blot; listed as 3,5-DCQA", "method": "as §2"}, "Human thrombin": {"molecular_target": "Human thrombin (Homo sapiens, UniProt P00734)", "assay": "Serine protease enzyme inhibition assay, thrombin"}, "Human cathepsin G": {"molecular_target": "T2, Human cathepsin G (Homo sapiens, UniProt P08311)", "T2 construct": "purchased Enzo BML-SE283", "T2 sequence (P08311 21-255)": "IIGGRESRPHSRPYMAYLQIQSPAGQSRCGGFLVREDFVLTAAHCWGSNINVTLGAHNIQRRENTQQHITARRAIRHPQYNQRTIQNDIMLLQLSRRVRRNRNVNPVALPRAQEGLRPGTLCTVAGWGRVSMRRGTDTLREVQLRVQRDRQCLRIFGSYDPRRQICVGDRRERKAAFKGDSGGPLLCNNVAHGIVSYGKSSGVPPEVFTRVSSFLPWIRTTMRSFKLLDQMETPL", "assay": "Serine protease enzyme inhibition assay, cathepsin G", "assay_type": "biochemical", "conditions": "mean ± S.E.M. (n ≥ 3)"}, "[2]": {"test_system": "fMLF/CB-activated neutrophils", "assay": "O2.- generation in fMLF/CB-activated neutrophils (ferricytochrome c reduction)", "assay_type": "cell-based, human", "conditions": "Neutrophil; fMLF/CB-activated human neutrophils", "method": "as §1"}, "[3]": {"test_system": "fMLF/CB-activated neutrophils", "assay": "Elastase release in fMLF/CB-activated neutrophils", "assay_type": "cell-based", "conditions": "read-out: IC50 HNE (NE activity / elastase release)", "method": "as §1"}, "[4]": {"molecular_target": "T3, Human neutrophil elastase (Homo sapiens, UniProt P08246)", "T3 construct": "purchased Enzo BML-SE284", "T3 sequence (P08246 30-267)": "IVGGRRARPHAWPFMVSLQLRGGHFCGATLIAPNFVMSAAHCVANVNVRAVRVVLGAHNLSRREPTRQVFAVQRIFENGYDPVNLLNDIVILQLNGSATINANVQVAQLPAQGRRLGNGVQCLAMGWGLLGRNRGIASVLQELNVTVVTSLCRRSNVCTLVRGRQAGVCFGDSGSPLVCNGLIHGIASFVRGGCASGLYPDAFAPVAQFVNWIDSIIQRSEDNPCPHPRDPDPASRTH", "assay": "Serine protease enzyme inhibition assay, HNE", "assay_type": "biochemical"}, "[5]": {"test_system": "LPS-stimulated RAW 264.7 cells", "design": "method as in PMID 25975516", "conditions": "LPS-stimulated RAW 264.7 cells ref 45; cited from earlier work"}, "[6]": {"conditions": "after intravenous administration ref 46, 47, 49; cited from earlier work"}, "Bovine chymotrypsin": {"molecular_target": "T4, Bovine chymotrypsin (Bos taurus, UniProt P00766)", "T4 construct": "purchased Sigma-Aldrich C4129", "assay": "Serine protease enzyme inhibition assay, chymotrypsin", "assay_type": "biochemical", "conditions": "mean ± S.E.M. (n ≥ 3)"}, "LPS-induced ALI in mice": {"test_system": "LPS-induced ALI in mice", "assay": "LPS-induced ALI in mice", "assay_type": "in vivo, mouse", "method": "Mice were randomly divided into nine groups (n = 6 per group): (1) Vehicle, (2) IKWE (500 mg/kg), (3) 3,5-DCQA (50 mg/kg), (4) LPS, (5) LPS + DEX (10 mg/kg), (6) LPS + IKWE (250 mg/kg), (7) LPS + IKWE (500 mg/kg), (8) LPS + 3,5-DCQA (25 mg/kg) and (9) LPS + 3,5-DCQA (50 mg/kg). Agents were dissolved in vehicle solution (PBS containing 10% Tween-80). All animals were pretreated intraperitoneally with 100 μL vehicle solution or agents, respectively, 1 h before PBS or LPS (Sigma, Escherichia coli. 055:B5) intratracheal injection (5 mg/kg in 50 μL of PBS)[26],[27]. Mice were sacrificed at 6 h post-dosage and the left lung collected for histological examination or MPO activity measurement. Lung tissue was fixed with 10% formalin before embedding with paraffin wax and routine H&E staining. MPO activity was measured as described earlier. The right lobes were prepared for W/D weight ratio determination or BALF analysis. To obtain the W/D weight ratio, wet tissues were weighed immediately after collection, dried in the oven at 80 °C for 48 h and re-weighed. For post-treatment experiments, mice treated with vehicle or 3,5-DCQA (50 mg/kg) intraperitoneally 1 h after LPS treatment.\nMice were sacrificed and hilum of the left lung sealed. BALF was collected following injection with 0.2, 0.2, 0.3, 0.3 or 0.5 mL PBS. BALF samples were combined and centrifuged at 1,000 rpm for 15 min at 4 °C. Total proteins in the supernatant fraction were determined using the protein assay dye (BIO-RAD, 500-0006) with BSA as the reference and TNF-α and IL-6 levels measured with ELISA kits (eBioscience, 88-7324-88 and 88-7064-88). Cell pellets from BALF were resuspended in 100 μL PBS and cytospun (200 g, 3 min) onto a glass microscope slide, followed by staining with Liu’s stain. Neutrophils were counted under a light microscope in five randomly selected fields (×200 magnification)[60]."}, "human neutrophils": {"test_system": "human neutrophils", "design": "method as in PMID 12384183", "conditions": "100 μM, human neutrophils ref 35; cited from earlier work"}, "Akt": {"test_system": "Akt", "assay": "Immunoblotting of Akt phosphorylation in fMLF-activated neutrophils", "assay_type": "cell-based, human", "conditions": "10 μM, 5 min before fMLF (0.1 μM) 0.5 min, Western blot; listed as 3,5-DCQA", "method": "as §2"}, "[7]": {"conditions": "pretreatment i.p. 1 h before LPS, 6 h"}}, "note": "“Also recorded” adds a separate entry of the source."}
{"smiles": "O=C(C=Cc1ccc(O)c(O)c1)OC1CC(O)(C(=O)O)CC(OC(=O)C=Cc2ccc(O)c(O)c2)C1O", "note": "(stereo not shown) [Compound 6, 3,5-dicaffeoylquinic acid]", "values": [{"measurement": "IC50", "setting": "[1]", "value": "2.9 ± 0.55", "unit": "µM"}, {"measurement": "IC50", "setting": "Human proteinase 3", "value": "> 30", "unit": "µM"}, {"measurement": "phosphorylation of SFKs", "setting": "Src family kinases", "value": "reduce phosphorylation; also recorded: inhibited the phosphorylation"}, {"measurement": "phosphorylation of Vav", "setting": "Vav", "value": "reduce phosphorylation; also recorded: inhibited the phosphorylation"}, {"measurement": "IC50", "setting": "Human thrombin", "value": "> 30", "unit": "µM"}, {"measurement": "IC50", "setting": "Human cathepsin G", "value": "> 30", "unit": "µM"}, {"measurement": "IC50", "setting": "[2]", "value": "1.92 ± 0.54", "unit": "µM"}, {"measurement": "IC50", "setting": "[3]; Homo sapiens, Neutrophil", "value": "12 ± 0.6", "unit": "µM"}, {"measurement": "IC50", "setting": "[3]; fMLF/CB-activated human neutrophils", "value": "> 10", "unit": "µM"}, {"measurement": "Inh % (HNE inhibition)", "setting": "[4]; at 30 M (so in the source), Table S3", "value": "90.53 ± 0.52", "unit": "%"}, {"measurement": "IC50", "setting": "[4]; enzyme assay, mean ± S.E.M. (n ≥ 3), read-out: IC50 HNE", "value": "1.86 ± 0.06", "unit": "µM"}, {"measurement": "selectivity of inhibitory effect among serine proteases", "setting": "[4]; five serine proteases examined", "value": "high selectivity for HNE"}, {"measurement": "TNF-α and IL-6 expression", "setting": "[5]", "value": "able to reduce"}, {"measurement": "time detectable in the plasma", "setting": "[6]", "value": 4, "unit": "h"}, {"measurement": "IC50", "setting": "Bovine chymotrypsin", "value": "> 30", "unit": "µM"}, {"measurement": "pathological features of ALI, post-treatment", "setting": "LPS-induced ALI in mice; 50 mg/kg i.p. 1 h after LPS", "value": "significantly improved"}, {"measurement": "levels of proinflammatory cytokines (TNF-α and IL-6) in BALF", "setting": "LPS-induced ALI in mice; [7]", "value": "Reduced levels"}, {"measurement": "lung edema (W/D weight ratio)", "setting": "LPS-induced ALI in mice; [7]", "value": "improve lung edema"}, {"measurement": "accumulation / infiltration of neutrophils in lung tissue (MPO activity, BALF, histology)", "setting": "LPS-induced ALI in mice; pretreatment i.p. 1 h before LPS, 6 h, listed as 3,5-DCQA", "value": "suppress accumulation of neutrophils; also recorded: significantly reduced"}, {"measurement": "pathological features of ALI (hemorrhage, infiltrating neutrophils, thickening of alveolar wall)", "setting": "LPS-induced ALI in mice; pretreatment i.p. 1 h before LPS, IKWE 500 mg/kg, 3,5-DCQA 50 mg/kg", "value": "significantly improved"}, {"measurement": "elastase release, myeloperoxidase activity and superoxide production", "setting": "human neutrophils", "value": "able to inhibit"}, {"measurement": "phosphorylation of Akt", "setting": "Akt", "value": "did not inhibited the phosphorylation"}]}
